In paper PMC5007443, “TNIK inhibition abrogates colorectal cancer stemness” (Nature Communications, 2016):
Blank lines part the entries; values can stand above or below the compound they belong to.

Key:
CSK = CSK (Homo sapiens, UniProt P41240); assay: Kinase selectivity profiling, c-Src tyrosine kinase; format: biochemical; conditions: read-out: Percentage inhibition of CSK
Procedure: (§1) The selectivity of compounds against a panel of 50 human protein kinases was assessed using a non-radiometric assay.

EGFR = EGFR (Homo sapiens, UniProt P00533); assay: Kinase selectivity profiling, Epidermal growth factor receptor; format: biochemical; conditions: read-out: Percentage inhibition of EGFR
Procedure: as §1

KDR = KDR (Homo sapiens, UniProt P35968); assay: Kinase selectivity profiling, Kinase insert domain receptor; format: biochemical; conditions: read-out: Percentage inhibition of KDR
Procedure: as §1

LCK = LCK (Homo sapiens, UniProt P06239); assay: Kinase selectivity profiling, Lymphocyte-specific protein tyrosine kinase; format: biochemical; conditions: read-out: Percentage inhibition of LCK
Procedure: as §1

SYK = SYK (Homo sapiens, UniProt P43405); assay: Kinase selectivity profiling, Spleen tyrosine kinase; format: biochemical; conditions: read-out: Percentage inhibition of SYK
Procedure: as §1

TRKA = TRKA (Homo sapiens, UniProt P04629); assay: Kinase selectivity profiling, Tropomyosin receptor kinase A; format: biochemical; conditions: 0.1 µM inhibitor, ATP at Km; for inhibition at 0.1 µM: read-out: Percentage inhibition of TRKA
Sequence of TRKA (P04629 33-796): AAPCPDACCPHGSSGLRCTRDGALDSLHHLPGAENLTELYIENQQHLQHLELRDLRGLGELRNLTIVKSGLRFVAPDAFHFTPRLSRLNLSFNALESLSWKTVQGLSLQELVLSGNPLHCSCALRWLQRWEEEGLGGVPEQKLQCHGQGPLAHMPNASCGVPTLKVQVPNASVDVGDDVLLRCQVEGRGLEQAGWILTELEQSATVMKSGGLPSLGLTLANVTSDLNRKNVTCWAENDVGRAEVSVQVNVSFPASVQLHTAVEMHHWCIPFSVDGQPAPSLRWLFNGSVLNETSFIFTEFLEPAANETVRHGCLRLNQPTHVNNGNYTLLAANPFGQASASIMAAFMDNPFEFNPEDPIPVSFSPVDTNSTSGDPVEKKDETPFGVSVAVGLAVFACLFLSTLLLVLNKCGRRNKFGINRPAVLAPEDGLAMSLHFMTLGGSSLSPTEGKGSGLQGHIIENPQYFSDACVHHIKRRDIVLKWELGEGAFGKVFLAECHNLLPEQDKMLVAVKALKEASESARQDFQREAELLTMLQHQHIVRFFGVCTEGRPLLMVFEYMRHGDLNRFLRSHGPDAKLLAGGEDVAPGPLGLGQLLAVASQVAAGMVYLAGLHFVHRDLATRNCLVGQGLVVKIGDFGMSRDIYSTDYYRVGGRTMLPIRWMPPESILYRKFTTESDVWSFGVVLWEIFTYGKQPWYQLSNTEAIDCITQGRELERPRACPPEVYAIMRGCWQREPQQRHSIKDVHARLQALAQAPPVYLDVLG
Procedure: as §1

AKT1 = AKT1 (Homo sapiens, UniProt P31749); assay: Kinase selectivity profiling, v-Akt murine thymoma viral oncogene homolog 1; format: biochemical; conditions: read-out: Percentage inhibition of AKT1
Procedure: as §1

AurA = AurA (Homo sapiens, UniProt O14965); assay: Kinase selectivity profiling, Aurora kinase A; format: biochemical; conditions: read-out: Percentage inhibition of AurA
Procedure: as §1

CHK1 = CHK1 (Homo sapiens, UniProt O14757); assay: Kinase selectivity profiling, Checkpoint kinase 1; format: biochemical; conditions: read-out: Percentage inhibition of CHK1
Procedure: as §1

Erk2 = Erk2 (Homo sapiens, UniProt P28482); assay: Kinase selectivity profiling, Mitogen-activated protein kinase 1; format: biochemical; conditions: read-out: Percentage inhibition of Erk2
Procedure: as §1

HGK = HGK (Homo sapiens, UniProt O95819); assay: Kinase selectivity profiling, Hematopoietic progenitor kinase; format: biochemical; conditions: 0.1 µM inhibitor, ATP at Km; for inhibition at 0.1 µM: read-out: Percentage inhibition of HGK
Sequence of HGK (O95819 whole entry): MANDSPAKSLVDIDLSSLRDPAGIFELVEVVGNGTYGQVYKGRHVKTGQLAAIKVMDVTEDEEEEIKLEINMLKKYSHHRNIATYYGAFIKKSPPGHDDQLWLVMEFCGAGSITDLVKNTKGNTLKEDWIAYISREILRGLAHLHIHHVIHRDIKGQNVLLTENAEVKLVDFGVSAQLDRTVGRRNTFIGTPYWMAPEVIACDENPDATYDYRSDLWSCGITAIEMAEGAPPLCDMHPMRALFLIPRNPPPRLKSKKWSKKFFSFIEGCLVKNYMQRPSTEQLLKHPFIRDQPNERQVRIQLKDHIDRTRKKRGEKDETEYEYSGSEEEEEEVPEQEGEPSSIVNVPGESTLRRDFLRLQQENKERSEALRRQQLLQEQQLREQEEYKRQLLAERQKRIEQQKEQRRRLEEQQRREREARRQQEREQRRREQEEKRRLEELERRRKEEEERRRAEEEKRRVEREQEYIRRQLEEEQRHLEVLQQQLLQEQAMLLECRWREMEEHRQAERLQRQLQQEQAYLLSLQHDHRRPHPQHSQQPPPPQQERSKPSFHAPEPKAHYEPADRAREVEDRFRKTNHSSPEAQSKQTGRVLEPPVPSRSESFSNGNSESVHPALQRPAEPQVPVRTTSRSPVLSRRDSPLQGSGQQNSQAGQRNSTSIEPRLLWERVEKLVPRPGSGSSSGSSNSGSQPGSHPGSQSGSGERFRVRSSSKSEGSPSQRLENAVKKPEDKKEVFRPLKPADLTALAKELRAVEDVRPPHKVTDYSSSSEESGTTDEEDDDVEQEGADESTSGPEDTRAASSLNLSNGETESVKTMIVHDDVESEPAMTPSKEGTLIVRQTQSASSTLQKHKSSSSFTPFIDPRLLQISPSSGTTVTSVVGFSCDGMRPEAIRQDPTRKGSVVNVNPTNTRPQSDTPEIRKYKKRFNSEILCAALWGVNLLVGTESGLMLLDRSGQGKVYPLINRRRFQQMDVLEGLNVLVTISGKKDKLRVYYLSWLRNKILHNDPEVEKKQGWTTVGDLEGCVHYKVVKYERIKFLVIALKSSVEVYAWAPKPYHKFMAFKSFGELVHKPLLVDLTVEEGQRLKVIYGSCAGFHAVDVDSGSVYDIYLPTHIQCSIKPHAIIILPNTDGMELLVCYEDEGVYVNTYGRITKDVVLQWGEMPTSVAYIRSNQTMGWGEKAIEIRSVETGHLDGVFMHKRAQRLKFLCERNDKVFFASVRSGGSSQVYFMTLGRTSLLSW
Procedure: as §1

IKKβ = IKKβ (Homo sapiens, UniProt O14920); assay: Kinase selectivity profiling, I-kappa-B kinase-β; format: biochemical; conditions: read-out: Percentage inhibition of IKKβ
Procedure: as §1

MAPKAPK2 = MAPKAPK2 (Homo sapiens, UniProt P49137); assay: Kinase selectivity profiling, Mitogen-activated protein kinase-activated protein kinase 2; format: biochemical; conditions: read-out: Percentage inhibition of MAPKAPK2
Sequence of MAPKAPK2 (P49137 whole entry): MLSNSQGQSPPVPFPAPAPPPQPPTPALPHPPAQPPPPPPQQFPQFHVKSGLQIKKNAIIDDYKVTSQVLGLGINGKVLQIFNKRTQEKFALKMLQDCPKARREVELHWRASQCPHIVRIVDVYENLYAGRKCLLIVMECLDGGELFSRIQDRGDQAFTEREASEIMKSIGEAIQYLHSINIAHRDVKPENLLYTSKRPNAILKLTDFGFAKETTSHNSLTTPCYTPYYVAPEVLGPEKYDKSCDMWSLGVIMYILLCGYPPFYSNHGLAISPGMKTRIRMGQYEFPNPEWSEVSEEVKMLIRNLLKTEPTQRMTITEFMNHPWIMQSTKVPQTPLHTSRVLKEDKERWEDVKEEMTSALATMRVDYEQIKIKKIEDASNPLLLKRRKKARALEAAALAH
Procedure: as §1

MST1 = MST1 (Homo sapiens, UniProt Q13043); assay: Kinase selectivity profiling; format: biochemical; conditions: read-out: Percentage inhibition of MST1
Procedure: as §1

PDK1 = PDK1 (Homo sapiens, UniProt O15530); assay: Kinase selectivity profiling; format: biochemical; conditions: read-out: Percentage inhibition of PDK1
Sequence of PDK1 (O15530 whole entry): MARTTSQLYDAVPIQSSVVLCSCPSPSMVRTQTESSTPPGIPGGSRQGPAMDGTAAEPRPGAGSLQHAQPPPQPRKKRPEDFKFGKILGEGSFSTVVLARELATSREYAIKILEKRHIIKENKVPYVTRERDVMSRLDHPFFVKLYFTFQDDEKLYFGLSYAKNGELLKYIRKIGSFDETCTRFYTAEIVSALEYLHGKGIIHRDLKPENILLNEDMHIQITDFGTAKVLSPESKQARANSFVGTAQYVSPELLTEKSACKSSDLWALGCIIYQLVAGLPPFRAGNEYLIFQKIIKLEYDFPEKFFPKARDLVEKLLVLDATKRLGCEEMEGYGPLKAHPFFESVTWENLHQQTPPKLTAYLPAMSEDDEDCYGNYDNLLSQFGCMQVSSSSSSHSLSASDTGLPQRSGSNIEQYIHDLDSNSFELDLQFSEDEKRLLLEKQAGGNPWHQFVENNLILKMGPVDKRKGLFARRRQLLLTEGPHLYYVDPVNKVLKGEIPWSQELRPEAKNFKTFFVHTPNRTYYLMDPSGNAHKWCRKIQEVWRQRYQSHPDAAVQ
Procedure: as §1

PKD2 = PKD2 (Homo sapiens, UniProt Q9BZL6); assay: Kinase selectivity profiling; format: biochemical; conditions: read-out: Percentage inhibition of PKD2
Procedure: as §1

p38α = p38α (Homo sapiens, UniProt Q16539); assay: Kinase selectivity profiling, Mitogen-activated protein kinase 14; format: biochemical; conditions: read-out: Percentage inhibition of p38α
Procedure: as §1

PBK = PBK (Homo sapiens, UniProt Q96KB5); assay: Kinase selectivity profiling, PDZ binding kinase; format: biochemical; conditions: read-out: Percentage inhibition of PBK
Procedure: as §1

PIM1 = PIM1 (Homo sapiens, UniProt P11309); assay: Kinase selectivity profiling, Pim-1 oncogene; format: biochemical; conditions: read-out: Percentage inhibition of PIM1
Sequence of PIM1 (P11309 whole entry): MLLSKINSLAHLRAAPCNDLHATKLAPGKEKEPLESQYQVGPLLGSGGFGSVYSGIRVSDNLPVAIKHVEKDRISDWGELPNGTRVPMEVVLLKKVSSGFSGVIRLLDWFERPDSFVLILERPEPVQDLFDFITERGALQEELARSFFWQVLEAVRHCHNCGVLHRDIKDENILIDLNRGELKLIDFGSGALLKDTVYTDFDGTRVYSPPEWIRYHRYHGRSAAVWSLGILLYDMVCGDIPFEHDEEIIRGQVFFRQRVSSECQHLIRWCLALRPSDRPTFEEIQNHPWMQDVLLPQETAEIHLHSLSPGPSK
Procedure: as §1

PKACα = PKACα (Homo sapiens, UniProt P17612); assay: Kinase selectivity profiling, cAMP-dependent protein kinase, catalytic subunit α; format: biochemical; conditions: read-out: Percentage inhibition of PKACα
Procedure: as §1

ROCK1 = ROCK1 (Homo sapiens, UniProt Q13464); assay: Kinase selectivity profiling, Rho-associated, coiled-coil containing protein kinase 1; format: biochemical; conditions: read-out: Percentage inhibition of ROCK1
Sequence of ROCK1 (Q13464 whole entry): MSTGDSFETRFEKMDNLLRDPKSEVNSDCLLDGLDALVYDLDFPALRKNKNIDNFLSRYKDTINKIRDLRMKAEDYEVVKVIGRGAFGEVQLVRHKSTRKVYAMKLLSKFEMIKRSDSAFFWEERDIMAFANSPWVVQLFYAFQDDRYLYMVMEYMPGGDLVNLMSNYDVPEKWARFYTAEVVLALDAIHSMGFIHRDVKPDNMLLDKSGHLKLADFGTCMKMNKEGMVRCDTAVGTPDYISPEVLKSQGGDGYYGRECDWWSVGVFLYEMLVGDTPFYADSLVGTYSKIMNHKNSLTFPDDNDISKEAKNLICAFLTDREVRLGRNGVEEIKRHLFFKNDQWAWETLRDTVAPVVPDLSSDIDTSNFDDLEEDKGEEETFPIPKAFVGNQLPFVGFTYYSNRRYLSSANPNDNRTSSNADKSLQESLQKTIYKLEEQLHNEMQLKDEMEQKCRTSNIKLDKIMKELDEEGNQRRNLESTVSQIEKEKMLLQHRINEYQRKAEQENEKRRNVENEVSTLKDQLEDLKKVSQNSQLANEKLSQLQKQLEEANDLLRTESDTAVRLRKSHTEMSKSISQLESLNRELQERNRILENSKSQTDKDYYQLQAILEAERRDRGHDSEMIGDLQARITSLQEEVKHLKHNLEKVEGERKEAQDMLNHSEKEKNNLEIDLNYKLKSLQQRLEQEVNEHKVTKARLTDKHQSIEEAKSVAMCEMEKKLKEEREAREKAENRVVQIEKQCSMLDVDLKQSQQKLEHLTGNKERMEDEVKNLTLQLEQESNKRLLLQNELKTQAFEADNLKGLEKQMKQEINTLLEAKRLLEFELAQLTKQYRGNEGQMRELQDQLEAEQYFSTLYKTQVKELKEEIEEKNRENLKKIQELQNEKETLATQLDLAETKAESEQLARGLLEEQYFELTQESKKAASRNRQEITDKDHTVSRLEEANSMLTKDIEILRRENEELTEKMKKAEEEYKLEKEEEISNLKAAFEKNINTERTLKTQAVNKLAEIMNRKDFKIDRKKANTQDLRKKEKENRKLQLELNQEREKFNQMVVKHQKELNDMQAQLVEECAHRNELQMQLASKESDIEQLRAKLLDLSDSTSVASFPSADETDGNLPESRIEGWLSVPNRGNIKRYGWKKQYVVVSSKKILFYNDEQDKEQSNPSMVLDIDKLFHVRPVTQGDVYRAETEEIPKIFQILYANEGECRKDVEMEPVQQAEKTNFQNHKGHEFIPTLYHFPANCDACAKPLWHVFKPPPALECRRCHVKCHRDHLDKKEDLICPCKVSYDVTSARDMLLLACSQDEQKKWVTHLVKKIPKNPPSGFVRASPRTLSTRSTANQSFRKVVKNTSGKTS
Procedure: as §1

SGK = SGK (Homo sapiens, UniProt O00141); assay: Kinase selectivity profiling, Serum/glucocorticoid regulated kinase; format: biochemical; conditions: read-out: Percentage inhibition of SGK
Sequence of SGK (O00141 whole entry): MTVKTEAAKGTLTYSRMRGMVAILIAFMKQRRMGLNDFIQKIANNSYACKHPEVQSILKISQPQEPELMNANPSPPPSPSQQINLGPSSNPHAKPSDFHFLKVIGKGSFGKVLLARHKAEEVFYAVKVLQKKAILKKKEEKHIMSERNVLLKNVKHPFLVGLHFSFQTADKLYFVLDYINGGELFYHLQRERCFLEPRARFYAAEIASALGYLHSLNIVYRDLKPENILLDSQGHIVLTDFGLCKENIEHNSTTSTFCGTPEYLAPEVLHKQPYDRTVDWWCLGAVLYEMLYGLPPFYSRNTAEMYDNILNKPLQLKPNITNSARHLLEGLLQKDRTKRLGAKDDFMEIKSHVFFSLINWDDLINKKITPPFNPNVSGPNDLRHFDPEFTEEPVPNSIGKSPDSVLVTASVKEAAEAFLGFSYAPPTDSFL
Procedure: as §1

TSSK1 = TSSK1 (Homo sapiens, UniProt Q9BXA7); assay: Kinase selectivity profiling, Testis-specific serine kinase 1; format: biochemical; conditions: read-out: Percentage inhibition of TSSK1
Procedure: as §1

HCT116 cells = assay: Drug sensitivity assay, ATP production, 2D culture; format: cell-based; conditions: Homo sapiens, HCT-116; HCT116, 2D culture, 72 h; read-out: IC50, ATP production (cell growth)
Procedure: (§2) Cells were seeded at a density of 3,000 cells per well in 96-well plates. Twenty-four hours after seeding, the cells were exposed to serially diluted compounds (0.003, 0.01, 0.03, 0.1, 0.3, 1, 3 and 10 μM) and incubated for 72 h (Fig. 3a). Patient-derived colorectal cancer spheroids were dissociated into single cells with Accutase (Nacalai Tesque) and seeded at a density of 3,000 cells per well into Ultra-Low attachment multiwall 96-well plates (Corning; Fig. 6d). ATP was measured with a CellTiter-Glo Luminescent Cell Viability Assay kit (Promega). Experiments were performed in triplicate and repeated at least two times.

[1] = test system: patient-derived colorectal cancer spheroids #19; assay: ATP production of patient-derived spheroid #19; format: cell-based; conditions: Homo sapiens, 72 h; spheroid #19, 3 days
Procedure: as §2

Spheroid #6 = assay: ALDH activity of spheroid #6; format: cell-based, human; conditions: spheroid #6, 1 μM, 48 hr
Procedure: Cells with ALDH activity were detected using an Aldefluor kit (Stem Cell Technologies) in accordance with the manufacturer's instructions. Briefly, cells were incubated in Aldefluor assay buffer containing ALDH substrate for 30 min at 37 °C. As a negative control, an aliquot of each sample was treated with 50 mM diethylaminobenzaldehyde (DEAB) to block ALDH activity. Cells were analysed with a Guava easy Cyte HT flow cytometer. Data analysis was performed using the Guava InCyte software. The analysis was performed in triplicate and repeated at least two times.

[2] = test system: patient-derived colorectal cancer spheroids #6; assay: Limiting dilution analysis of sphere reformation, spheroids #6; format: cell-based, human; conditions: spheroids #6, 3-day Treatment
Procedure: Spheroids were gently dissociated into single cells with the use of StemPro Accutase (Thermo Fisher Scientific), and 1,000, 100, 10 or 1 viable cells were seeded into each well of a 96-well U-bottom PrimeSurface plate (Supplementary Figs 10b and 12). Experiments were performed in triplicate and repeated at least two times.

SMILES: O[C@H]1CC[C@@H](Oc2cccc3cnc(Nc4ccc5nc[nH]c5c4)nc23)CC1 [NCB-0846, cis-4-(2-(3H-benzo[d]imidazol-5-ylamino)quinazolin-8-yloxy)cyclohexanol]
inhibition at 0.1 µM (CSK): -1% | inhibition at 0.1 µM (EGFR): 4.8% | inhibition at 0.1 µM (KDR): 71.1% | inhibition at 0.1 µM (LCK): 23.6% | inhibition at 0.1 µM (SYK): 7.6% | Percentage inhibition of TRKA (TRKA; 0.1 µM): 89.1% | inhibition at 0.1 µM (TRKA): > 80% | inhibition at 0.1 µM (AKT1): -3.4% | inhibition at 0.1 µM (AurA): 41.4% | inhibition at 0.1 µM (CHK1): 10.1% | inhibition at 0.1 µM (Erk2): 0.7% | Percentage inhibition of HGK (HGK; 0.1 µM): 80.5% | inhibition at 0.1 µM (HGK): > 80% | inhibition at 0.1 µM (IKKβ): 6.8% | inhibition at 0.1 µM (MAPKAPK2): -5.8% | inhibition at 0.1 µM (MST1): 57.8% | inhibition at 0.1 µM (PDK1): 2.4% | inhibition at 0.1 µM (PKD2): 18.8% | inhibition at 0.1 µM (p38α): -3.5% | inhibition at 0.1 µM (PBK): -3.9% | inhibition at 0.1 µM (PIM1): -3.1% | inhibition at 0.1 µM (PKACα): 0.9% | inhibition at 0.1 µM (ROCK1): 20.1% | inhibition at 0.1 µM (SGK): 14.7% | inhibition at 0.1 µM (TSSK1): 5.8% | IC50 (HCT116 cells): 360 nM | IC50 [1]: 620 nM | percentage of cells with ALDH activity, - DEAB (Spheroid #6): 19.43% | percentage of cells with ALDH activity, + DEAB (Spheroid #6): 1.01% | Sphere-containing wells/total wells ([2]; 0.1 μM, 1 cell per well): 12/96 | Sphere-containing wells/total wells ([2]; 0.1 μM, 10 cells per well): 77/96 | Sphere-containing wells/total wells ([2]; 0.1 μM, 100 cells per well): 96/96 | Sphere-containing wells/total wells ([2]; 0.1 μM, 1000 cells per well): 96/96 | Sphere-containing wells/total wells ([2]; 0.3 μM, 1 cell per well): 3/96 | Sphere-containing wells/total wells ([2]; 0.3 μM, 10 cells per well): 72/96 | Sphere-containing wells/total wells ([2]; 0.3 μM, 100 cells per well): 96/96 | Sphere-containing wells/total wells ([2]; 0.3 μM, 1000 cells per well): 96/96 | Sphere-containing wells/total wells ([2]; 1.0 μM, 1 cell per well): 2/96 | Sphere-containing wells/total wells ([2]; 1.0 μM, 10 cells per well): 49/96 | Sphere-containing wells/total wells ([2]; 1.0 μM, 100 cells per well): 94/96 | Sphere-containing wells/total wells ([2]; 1.0 μM, 1000 cells per well): 96/96

inhibition at 0.1 µM (CSK): -4% | inhibition at 0.1 µM (EGFR): -16.8% | inhibition at 0.1 µM (KDR): 43.7% | inhibition at 0.1 µM (LCK): 6.8% | inhibition at 0.1 µM (SYK): 14.2% | inhibition at 0.1 µM (TRKA): 81.6% | inhibition at 0.1 µM (AKT1): -4.4% | inhibition at 0.1 µM (AurA): 36.5% | inhibition at 0.1 µM (CHK1): 9% | inhibition at 0.1 µM (Erk2): -2.1% | inhibition at 0.1 µM (HGK): 21.8% | inhibition at 0.1 µM (IKKβ): 7.9% | inhibition at 0.1 µM (MAPKAPK2): -9.3% | inhibition at 0.1 µM (MST1): 14.3% | inhibition at 0.1 µM (PDK1): -0.8% | inhibition at 0.1 µM (PKD2): 1% | inhibition at 0.1 µM (p38α): -2.8% | inhibition at 0.1 µM (PBK): -5.8% | inhibition at 0.1 µM (PIM1): -5% | inhibition at 0.1 µM (PKACα): -4.4% | inhibition at 0.1 µM (ROCK1): 9.7% | inhibition at 0.1 µM (SGK): 6.6% | inhibition at 0.1 µM (TSSK1): 1.1% | IC50 (HCT116 cells): 2400 nM | IC50 [1]: > 3000 nM
SMILES: O[C@H]1CC[C@H](Oc2cccc3cnc(Nc4ccc5nc[nH]c5c4)nc23)CC1 [NCB-0970]
percentage of cells with ALDH activity, - DEAB (Spheroid #6): 44.32% | percentage of cells with ALDH activity, + DEAB (Spheroid #6): 2.30% | Sphere-containing wells/total wells ([2]; 0.1 μM, 1 cell per well): 8/96 | Sphere-containing wells/total wells ([2]; 0.1 μM, 10 cells per well): 83/96 | Sphere-containing wells/total wells ([2]; 0.1 μM, 100 cells per well): 96/96 | Sphere-containing wells/total wells ([2]; 0.1 μM, 1000 cells per well): 96/96 | Sphere-containing wells/total wells ([2]; 0.3 μM, 1 cell per well): 10/96 | Sphere-containing wells/total wells ([2]; 0.3 μM, 10 cells per well): 87/96 | Sphere-containing wells/total wells ([2]; 0.3 μM, 100 cells per well): 96/96 | Sphere-containing wells/total wells ([2]; 0.3 μM, 1000 cells per well): 96/96 | Sphere-initiating cell frequency, Estimate ([2]; 1.0 μM): 1/15 | Sphere-containing wells/total wells ([2]; 1.0 μM, 1 cell per well): 1/96 | Sphere-containing wells/total wells ([2]; 1.0 μM, 10 cells per well): 50/96 | Sphere-containing wells/total wells ([2]; 1.0 μM, 100 cells per well): 96/96 | Sphere-containing wells/total wells ([2]; 1.0 μM, 1000 cells per well): 96/96
